# Test results from publication PMC8933826 (EBioMedicine, 2022).
# Assays:
# Tet(X3) = assay: biolayer interferometry; assay type: binding, Acinetobacter baumannii
# Tet(X4) = Tet(X4) (Escherichia coli, UniProt A0A3T0V9Y5); assay: biolayer interferometry; assay type: binding
# Sequence of Tet(X4) (A0A3T0V9Y5 1-385): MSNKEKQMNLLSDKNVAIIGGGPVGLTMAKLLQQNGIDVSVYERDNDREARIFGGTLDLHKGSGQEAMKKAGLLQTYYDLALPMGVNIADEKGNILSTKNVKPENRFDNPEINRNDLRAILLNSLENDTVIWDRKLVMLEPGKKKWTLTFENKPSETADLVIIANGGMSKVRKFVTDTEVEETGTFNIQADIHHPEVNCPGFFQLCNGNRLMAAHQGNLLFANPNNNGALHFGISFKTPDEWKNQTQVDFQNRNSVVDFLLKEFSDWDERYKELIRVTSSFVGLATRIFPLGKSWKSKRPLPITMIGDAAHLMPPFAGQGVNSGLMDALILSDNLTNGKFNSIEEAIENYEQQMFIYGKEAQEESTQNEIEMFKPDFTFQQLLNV
compound,measurement,setting,value
CC1=CC(=O)c2c(O)cccc2C1=O [plumbagin],Kd,Tet(X3),200 µM
same,Kd,Tet(X4),1600 µM
